Counter-ions that a name gives are not always drawn. Like-named read-outs stand apart in the source and are kept apart here.
How the values were obtained:
[1] = test system: protein kinase C from mouse brains; assay: 3H-Phorbol dibutyrate binding (inhibition of binding of phorbol ester to protein kinase C); details: for IC50: IC50 determined with program EBDA
Procedure: The ability of active compounds to inhibit the binding of phorbol ester to protein kinase C from mouse brains was measured as follows. Mouse brains were homogenized in ice-cold 50 mM Tris buffer, pH 7.4, containing 0.5 mM CaCl2, in a 15 mL Dounce homogenizer with 10 gentle strokes. The homogenate was centrifuged at 100,000×g for 1 hour at 4° C. The pellets were resuspended in 25 mL of the same ice-cold buffer and protein concentration was adjusted to 0.4 mg/mL. To each binding tube was added […] of the buffer, […] of [20-^3 H]Phorbol 12,13-dibutyrate, […] final concentration in assay, […] of test drug or displacing ligand, 50 uL of 50 mM Tris, pH 7.4 at 25° C. containing 1% bovine serum albumin, and […] enzyme preparation. Tubes were incubated at 37° C. for 30 minutes, then terminated by filtration onto Whatman GF/B glass fiber filters followed by washing with 2 mL ice-cold 50 mM Tris, pH 7.4, four times. Nonspecific binding was defined as that binding occurring in the presence of 1 mM phorbol ester. Percent inhibition was determined for each inhibitor candidate, and IC50 values were determined using the computer program "EBDA".

[2] = target: Protein kinase C from mouse brain; assay: Inhibition of PKC phosphorylation of histone; assay type: biochemical
Procedure: Protein kinase C from mouse brain was used in the screening protocol since it contains several isozymes of the enzyme. The tissue was prepared by homogenizing two mouse brains minus the cerebelli in 5 ml of 25 mM Tris-HCl,pH 7.4, containing 2 mM ethylenediamine tetraacetic acid (EDTA) and 1 mM ethylene glycol tetraacetic acid (EGTA), using a polytron at setting 5 for 15 seconds. The homogenate was centrifuged for 1 hour at 50,000×g at 4° C. The supernatant was used as the source of enzyme. The standard reaction mixture (250 μl) contained 20 mM Tris-HCl,pH 7.5, 10 mM Mg (CH3 COO)2, 400 μM CaCl2, 0.1 mM EGTA, […] [γ-^32 P] ATP (1200 cpm/pmol), 100 μg/ml phosphatidylserine, 10 μM histone, 1 μM phorbol 12-myristate-13-acetate, 10 μl enzyme preparation and 25 μl water or test drug. The mixture was incubated at 30° C. for 5 minutes. Mixtures were removed to an ice-bath, a 50 μl aliquot of each was added to Whatman P81 paper and washed in 10% TCA for 20 minutes. The paper was then washed with ethanol, followed by ethyl ether and finally air dryed. PKC activity was quantitated by liquid scintillation counting.

[3] = test system: Protein kinase A catalytic subunit; assay: Inhibition of protein kinase A phosphorylation of histone; assay type: biochemical; details: for PKA percent inhibition (phosphorylation of histone): percent inhibition at the maximum concentration tested 100 μM
Procedure: Protein kinase A activity was determined as follows. Protein kinase A catalytic subunit was purchased from Sigma Chemical Company. […] Incubation was at 30° C. for 5 minutes, then the assay was completed as described for protein kinase C above.

[4] = mouse brain PKC, histone, 30° C., 5 minutes, read-out: PKC IC50 (phosphorylation of histone)
[5] = text summary of Table IV, read-out: IC50, inhibition of phosphorylation by PKC

% inhibition @ 100 μM (3H-phorbol dibutyrate binding) ([1]; dihydrochloride) [%]	IC50 ([1]; dihydrochloride) [µM]	IC50 [2, 4] [µM]	IC50 [2, 5] [µM]	PKA percent inhibition (phosphorylation of histone) [3] [%]	% inhibition @ 100 μM (3H-phorbol dibutyrate binding) [1] [%]	IC50 [1] [µM]	IC50 ([3]; reference standards only, read-out: PKA IC50 (phosphorylation of histone)) [µM]	SMILES
47	133							CCCCCCCCCCCCC(=O)N1CCCCC1CNC(=O)[C@@H](N)CCCCN (stereo partly shown) [2,6-diamino-N-([1-(1-oxotridecyl)-2-piperidinyl]methylhexana] [2,6-diamino-N-([1-(1-oxotridecyl)-2-piperidinyl]methylhexanamidedihydrochloride]
		44		0	9			CCCCCCCCCCCCC(=O)N1CCCCC1CNC(=O)[C@@H](N)CO (stereo partly shown) [2-Amino-3-hydroxy-N-([1-(1-oxotridecyl)-2-piperidinyl]methyl)propanamide hydrochloride]
		18		0				CCCCCCCCCCCCC(=O)N1CCCCC1CNC(=O)[C@@H](N)CCCN (stereo partly shown) [2.5-Diamino-N-([1-(1-oxotridecyl)-2-piperidinyl]methyl)pentanamide dihydrochloride]
		92	92	0	2			CCCCCCCCCCCCC(=O)N1CCCCC1CNC(=O)[C@@H](N)CC(=O)OCc1ccccc1 (stereo partly shown) [3-Amino-4-oxo-4-[([1-(1-oxotridecyl)-2-piperidinyl]methyl)amino]butanoic acid phenylmethyl ester hydrochloride]
		72		0	17			CCCCCCCCCCCCC(=O)N1CCCCC1CNC(=O)[C@@H](N)CCC(N)=O (stereo partly shown) [4-Amino-5-oxo-5-[([1-(1-oxotridecyl)-2-piperidinyl]methyl)amino]pentanamide hydrochloride]

More lines, now with the values behind:

SMILES	% inhibition @ 100 μM (3H-phorbol dibutyrate binding) ([1]; dihydrochloride) [%]	IC50 ([1]; dihydrochloride) [µM]	IC50 [2, 4] [µM]	IC50 [2, 5] [µM]	PKA percent inhibition (phosphorylation of histone) [3] [%]	% inhibition @ 100 μM (3H-phorbol dibutyrate binding) [1] [%]	IC50 [1] [µM]	IC50 ([3]; reference standards only, read-out: PKA IC50 (phosphorylation of histone)) [µM]
CCCCCCCCCCCCC(=O)N1CCCCC1CNC(=O)[C@@H](N)CCCCN (stereo partly shown) [2,6-diamino-N-([1-(1-oxotridecyl)-2-piperidinyl]methyl)hexan] [2,6-Diamino-N-([1-(1-oxotridecyl)-2-piperidinyl]methyl)hexanamide dihydrochloride]	22	191	13	13	0			
CCCCCCCCCCCCC(=O)N1CCCCC1CNC(=O)[C@@H](N)Cc1c[nH]cn1 (stereo partly shown) [2-Amino-N-([1-(1-oxotridecyl)-2-piperidinyl]methyl)-3-(1H-imidazol-4-yl)propanamide dihydrochloride]			60		0	28	343	
CCCCCCCCCCCCC(=O)N1CCCCC1CNC(=O)CN.Cl (stereo not shown) [2-Amino-N-([1-(1-oxotridecyl)-2-piperidinyl]methyl)ethanamide hydrochloride]			51		0	21		
CCCCCCCCCCCCC(=O)N1CCCCC1CNC(=O)[C@H](C)N (stereo partly shown) [2-Amino-N-([1-(1-oxotridecyl)-2-piperidinyl]methyl)propanamide hydrochloride]			52		0	49		
CCCCCCCCCCCC(=O)N1CCC[C@H]1CNC(=O)[C@@H](N)CCCCN [2.6-Diamino-N-([1-(1-oxododecyl)-2-pyrrolidinyl]methyl)hexanamide dihydrochloride]			46		0			
CCCCCCCCCCCCC(=O)N1CCCCC1CNC(=O)CCN.O=C(O)/C=C/C(=O)O (stereo not shown) [3-Amino-N-([1-(1-oxotridecyl)-2-piperidinyl]methyl)propanamide fumarate]			36		0	45	139	
CC1CNCCN1S(=O)(=O)c1cccc2cnccc12 (stereo not shown) [Example H-7, reference compound]			9					28
CCCCCCCCCCCCC(=O)N1CCCCC1CNC(=O)C1CCCNC1 (stereo not shown) [N-[([1-Oxotridecyl)-2-piperidinyl]methyl)amino]3-methyloxopiperidine hydrochloride]			29		0	34	157	
CCCCCCCCCCCCC/C=C/[C@@H](O)[C@@H](N)CO [Sphingosine, reference compound]			15		88			
